Counter-ions that a name gives are not always drawn.

The IC50 is the concentration needed to halve the response being measured.

TrkA, sequence (P04629 440-796 limits assumed): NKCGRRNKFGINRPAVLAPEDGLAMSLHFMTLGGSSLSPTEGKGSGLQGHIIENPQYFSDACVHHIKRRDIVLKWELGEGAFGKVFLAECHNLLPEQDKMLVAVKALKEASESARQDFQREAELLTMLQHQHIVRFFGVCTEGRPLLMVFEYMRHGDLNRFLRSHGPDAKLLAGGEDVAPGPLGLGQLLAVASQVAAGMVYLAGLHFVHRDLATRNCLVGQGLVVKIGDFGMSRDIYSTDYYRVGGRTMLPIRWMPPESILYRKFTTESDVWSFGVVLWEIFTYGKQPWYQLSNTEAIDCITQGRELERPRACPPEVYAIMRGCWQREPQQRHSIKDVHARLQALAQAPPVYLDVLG

The experiment deals with TrkA (Homo sapiens, UniProt P04629). As to the kind of experiment: TrkA LanthaScreen Eu Kinase Binding Assay. Also noted: 6HIS tagged cytoplasmic domain from Invitrogen, Catalog No. PV3144; purchased Invitrogen PV3144. The conditions noted are these: averaged IC50; TR-FRET binding assay; read-out: TrkA Enzyme IC50. How it is done:
TrkA binding activity was determined in a TrkA LanthaScreen™ Eu Kinase Binding Assay. 5 nM His-tagged recombinant human TrkA (6HIS tagged cytoplasmic domain from Invitrogen, Catalog No. PV3144) was incubated with 4 nM Alexa-Fluor® Tracer 236 (Invitrogen Cat. No. PV5592), 2 nM biotinylated anti-His (Invitrogen Cat. No. PV6090), and 2 nM europium-labeled Streptavidin (Invitrogen Cat. No. PV5899), in buffer (25 mM MOPS, pH 7.5, 5 mM MgCl2, 0.005% Triton X-100). Three fold serial dilutions of compounds of the invention in DMSO were added to a final percentage of 2% DMSO. After 60-minute incubation at 22° C., the reaction was measured using the EnVision mutlimode plate reader (PerkinElmer) via TR-FRET dual wavelength detection at […]. The percent of control was calculated using a ratiometric emission factor. The IC50 values were determined by fitting a four parameter model to the percent of control data.
Table A provides averaged IC50 values for compounds of the invention when tested in the assay of Example A, where A represents an averaged IC50 value<100 nM; B represents an averaged IC50 value from 100 to 1,000 nM; and C represents an averaged IC50 value from 1,000 to 10,000 nM.
A general note: In TR-FRET formats the signal depends on donor and acceptor labels being close together.
As for `COCCCc1ccc(Cl)cc1NC(=O)Nc1c(C)c(-c2cnn(C)c2)nn1-c1ccccc1` [Example 9, 1-(5-chloro-2-(3-methoxypropyl)phenyl)-3-(1′,4-dimethyl-1-phenyl-1H,1′H-[3,4′-bipyrazol]-5-yl)urea], the IC50 was less than 0.1 µM.
In the case of `COCCCc1cc(Cl)c(Cl)cc1NC(=O)Nc1c(C)c(OC[C@H]2CCCNC2)nn1-c1ccccc1` [Example 46, (S)-1-(4,5-dichloro-2-(3-methoxypropyl)phenyl)-3-(4-methyl-1-phenyl-3-(piperidin-3-ylmethoxy)-1H-pyrazol-5-yl)urea hydrochloride] it was less than 0.1 µM; in that of `COCCOc1nc(C(F)(F)F)ccc1NC(=O)Nc1c(C)c(-c2cnn(C)c2)nn1-c1ccccc1` [Example 7, 1-(1′,4-dimethyl-1-phenyl-1H,1′H-[3,4′-bipyrazol]-5-yl)-3-(2-(2-methoxyethoxy)-6-(trifluoromethyl)pyridin-3-yl)urea], 0.1 to 1 µM.
To `COCCCc1cc(Cl)c(Cl)cc1NC(=O)Nc1c(C)c(OC2CCNCC2)nn1-c1ccccc1` [Example 42, 1-(4,5-dichloro-2-(3-methoxypropyl)phenyl)-3-(4-methyl-1-phenyl-3-(piperidin-4-yloxy)-1H-pyrazol-5-yl)urea hydrochloride] belongs less than 0.1 µM.
To `COCCCc1cc(F)c(C(F)(F)F)cc1NC(=O)Nc1c(C)c(OC[C@H](O)CO)nn1-c1ccccc1` [Example 22, (R)-1-(3-(2,3-dihydroxypropoxy)-4-methyl-1-phenyl-1H-pyrazol-5-yl)-3-(4-fluoro-2-(3-methoxypropyl)-5-(trifluoromethyl)phenyl)urea] belongs less than 0.1 µM.
As to `COCCOc1ccc(Cl)cc1NC(=O)Nc1c(C)c(-c2cnn(C)c2)nn1-c1ccccc1` [Example 12, 1-(5-chloro-2-(2-methoxyethoxy)phenyl)-3-(1′,4-dimethyl-1-phenyl-1H,1′H-[3,4′-bipyrazol]-5-yl)urea], the IC50 was less than 0.1 µM.
Turning to `COCCCc1cc(Cl)c(Cl)cc1NC(=O)Nc1c(C)c(OC[C@@H]2CCCN(C)C2)nn1-c1ccccc1` [Example 35, (R)-1-(4,5-dichloro-2-(3-methoxypropyl)phenyl)-3-(4-methyl-3-((1-methylpiperidin-3-yl)methoxy)-1-phenyl-1H-pyrazol-5-yl)urea], the IC50 was less than 0.1 µM.
On to `COCCOc1nc(C)ccc1NC(=O)Nc1c(C)c(-c2cnn(C)c2)nn1-c1ccccc1` [Example 1, 1-(1′,4-dimethyl-1-phenyl-1H,1′H-[3,4′-bipyrazol]-5-yl)-3-(2-(2-methoxyethoxy)-6-methylpyridin-3-yl)urea], for which the IC50 lay in the range of 1 to 10 µM.
For the compound `COCCCc1cc(Cl)c(Cl)cc1NC(=O)Nc1c(C)c(OCC2CN(C)C2)nn1-c1ccccc1` [Example 37, 1-(4,5-dichloro-2-(3-methoxypropyl)phenyl)-3-(4-methyl-3-((1-methylazetidin-3-yl)methoxy)-1-phenyl-1H-pyrazol-5-yl)urea], the IC50 was less than 0.1 µM.
In the case of `COCCCc1cc(Cl)c(Cl)cc1NC(=O)Nc1c(C)c(OC2CCN(C)CC2)nn1-c1ccccc1` [Example 30, 1-(4,5-dichloro-2-(3-methoxypropyl)phenyl)-3-(4-methyl-3-((1-methylpiperidin-4-yl)oxy)-1-phenyl-1H-pyrazol-5-yl)urea] it was less than 0.1 µM; in that of `COCCCc1cc(F)c(C(F)(F)F)cc1NC(=O)Nc1c(C)c(-c2ccc(=O)n(C)c2)nn1-c1ccccc1` [Example 17, 1-(4-fluoro-2-(3-methoxypropyl)-5-(trifluoromethyl)phenyl)-3-(4-methyl-3-(1-methyl-6-oxo-1,6-dihydropyridin-3-yl)-1-phenyl-1H-pyrazol-5-yl)urea], less than 0.1 µM; in that of `COCCCc1cc(Cl)c(Cl)cc1NC(=O)Nc1c(C)c(OCCC2CCN(C)CC2)nn1-c1ccccc1` [Example 29, 1-(4,5-dichloro-2-(3-methoxypropyl)phenyl)-3-(4-methyl-3-(2-(1-methylpiperidin-4-yl)ethoxy)-1-phenyl-1H-pyrazol-5-yl)urea], less than 0.1 µM.
To `COCCOc1cc(Cl)ccc1NC(=O)Nc1c(C)c(-c2cnn(C)c2)nn1-c1ccccc1` [Example 11, 1-(4-chloro-2-(2-methoxyethoxy)phenyl)-3-(1′,4-dimethyl-1-phenyl-1H,1′H-[3,4′-bipyrazol]-5-yl)urea] belongs 0.1 to 1 µM.
As for `CNC(=O)c1nn(-c2ccccc2)c(NC(=O)Nc2cc(C(F)(F)F)ccc2CCCOC)c1C` [Example 26, 5-(3-(2-(3-methoxypropyl)-5-(trifluoromethyl)phenyl)ureido)-N,4-dimethyl-1-phenyl-1H-pyrazole-3-carboxamide], the IC50 was less than 0.1 µM.
To `COCCOc1cc(C(F)(F)F)ccc1NC(=O)Nc1c(C)c(-c2cnn(C)c2)nn1-c1ccccc1` [Example 10, 1-(1′,4-dimethyl-1-phenyl-1H,1′H-[3,4′-bipyrazol]-5-yl)-3-(2-(2-methoxyethoxy)-4-(trifluoromethyl)phenyl)urea] belongs less than 0.1 µM; to `COCCCc1cc(Cl)c(Cl)cc1NC(=O)Nc1c(C)c(OC[C@H]2CNCCO2)nn1-c1ccccc1` [Example 44, (R)-1-(4,5-dichloro-2-(3-methoxypropyl)phenyl)-3-(4-methyl-3-(morpholin-2-ylmethoxy)-1-phenyl-1H-pyrazol-5-yl)urea hydrochloride], less than 0.1 µM; to `COCCCc1cc(Cl)c(Cl)cc1NC(=O)Nc1c(C)c(OCCC2CCNCC2)nn1-c1ccccc1` [Example 40, 1-(4,5-dichloro-2-(3-methoxypropyl)phenyl)-3-(4-methyl-1-phenyl-3-(2-(piperidin-4-yl)ethoxy)-1H-pyrazol-5-yl)urea hydrochloride], less than 0.1 µM.
In the case of `COCCOc1cc(Cl)c(Cl)cc1NC(=O)Nc1c(C)c(-c2ccc(=O)n(C)c2)nn1-c1ccccc1` [Example 8, 1-(4,5-dichloro-2-(2-methoxyethoxy)phenyl)-3-(4-methyl-3-(1-methyl-6-oxo-1,6-dihydropyridin-3-yl)-1-phenyl-1H-pyrazol-5-yl)urea] it was less than 0.1 µM; in that of `COCCCc1cc(Cl)c(Cl)cc1NC(=O)Nc1c(C)c(OCCN2CCN(C(=O)OC(C)(C)C)CC2)nn1-c1ccccc1` [Example 49, tert-butyl 4-(2-((5-(3-(4,5-dichloro-2-(3-methoxypropyl)phenyl)ureido)-4-methyl-1-phenyl-1H-pyrazol-3-yl)oxy)ethyl)piperazine-1-carboxylate], less than 0.1 µM.
In the case of `CNC(=O)c1nn(-c2ccccc2)c(NC(=O)Nc2cc(Cl)c(Cl)cc2CCCOC)c1C` [Example 16, 5-(3-(4,5-dichloro-2-(3-methoxypropyl)phenyl)ureido)-N,4-dimethyl-1-phenyl-1H-pyrazole-3-carboxamide] it was less than 0.1 µM; in that of `COCCCc1cc(Cl)c(Cl)cc1NC(=O)Nc1c(C)c(OCC2CCN(C)CC2)nn1-c1ccccc1` [Example 24], less than 0.1 µM; in that of `CNC(=O)c1nn(-c2ccccc2)c(NC(=O)Nc2cc(Cl)c(Cl)cc2CC(F)(F)COC)c1C` [Example 27, 5-(3-(4,5-dichloro-2-(2,2-difluoro-3-methoxypropyl)phenyl)ureido)-N,4-dimethyl-1-phenyl-1H-pyrazole-3-carboxamide], less than 0.1 µM.
For the compound `COCCCc1cc(Cl)c(Cl)cc1NC(=O)Nc1c(C)c(OC[C@@H]2CCCNC2)nn1-c1ccccc1` [Example 47, (R)-1-(4,5-dichloro-2-(3-methoxypropyl)phenyl)-3-(4-methyl-1-phenyl-3-(piperidin-3-ylmethoxy)-1H-pyrazol-5-yl)urea hydrochloride], the half-maximal inhibitory concentration (IC50) was less than 0.1 µM.
To `COCCOc1ccc(C(F)(F)F)cc1NC(=O)Nc1c(C)c(-c2cnn(C)c2)nn1-c1ccccc1` [Example 2, 1-(1′,4-dimethyl-1-phenyl-1H,1′H-[3,4′-bipyrazol]-5-yl)-3-(2-(2-methoxyethoxy)-5-(trifluoromethyl)phenyl)urea] belongs less than 0.1 µM.
In the case of `COCCOc1nc(C)c(Cl)cc1NC(=O)Nc1c(C)c(-c2cnn(C)c2)nn1-c1ccccc1` [Example 6, 1-(5-chloro-2-(2-methoxyethoxy)-6-methylpyridin-3-yl)-3-(1′,4-dimethyl-1-phenyl-1H,1′H-[3,4′-bipyrazol]-5-yl)urea] it was less than 0.1 µM.

The record behind these values is patent US9790210B2, “N-(monocyclic aryl),N'-pyrazolyl-urea, thiourea, guanidine and cyanoguanidine compounds as TrkA kinase inhibitors” (Array BioPharma Inc., priority 2012, dated 2017).
